What is called IC50 is the concentration that inhibits the measured activity by half.

In experiment [1] the target is cap-dependent endonuclease (RNP fraction containing PB1•PB2•PA complex) (Influenza A virus, UniProt P15659). Nature of the experiment: Measurement of cap-dependent endonuclease (CEN) inhibitory activity. Format: biochemical. Conditions: RNP enzyme from A/WSN/33 virus, capped Cy3/BHQ2-labelled 30mer RNA substrate, room temperature 60 minutes.
For a further experiment, the system named is influenza virus. Description: CPE inhibitory effect confirming assay. The note with it: unidentified influenza virus, 72 h, read-out: CPE IC50. Format: cell-based.

With `O=C(O)c1cn2c(c(O)c1=O)C(=O)N1CCCO[C@H]1[C@@H]2C(c1ccccc1)c1ccccc1` [Compound 175], the results for the IC50 (in experiment [1]; with influenza virus) were 132 nM and 102 nM, respectively.
The like results for `CN1C(=O)c2c(O)c(=O)c(C(=O)O)cn2C[C@H]1C(c1ccccc1)c1ccccc1` [Compound 43] were, in that order, 78 nM and 1410 nM.
The like results for `CCOC(=O)CCN1CN(C(c2ccccc2)c2ccccc2)n2ccc(=O)c(O)c2C1=O` [Compound 128] were, in that order, 63 nM and 416 nM.

The values are drawn from patent US9505783B2, “Method of producing pyrone and pyridone derivatives” (priority 2009, dated 2016).
